Test results as given in patent US20240415845A1, “Compositions of Iboga Alkaloids and Methods of Treatment” (priority 2022, published 2024).

Key:
[1] = tested on: special operations veterans with combat and/or blast exposure; test: MRI-based predicted brain age (machine learning model); assay type: in vivo, human; details: for brain age estimate: baseline 40.89 years; for Brain age, Cohen's d / Brain age, Mean Difference: N 24
Source text: In another aspect, a method for slowing or reversing brain aging in a subject is provided. In an embodiment, the subject is a person a healthy individual or is a person with TBI or with TBI and PTSD or a person at risk of one or both of TBI and PTSD. The method comprises treating the subject with ibogaine, as described herein. Neuroimaging data can be used to predict chronological age in healthy individuals, using machine learning. Neuroimaging-derived age predictions have been explored in the context of different brain diseases (Cole, et al., NeuroImage, 163:115-124 (2017): Cole, et al., Trends in Neurosciences, 40(12):681 (2017))). By training models on healthy individuals, brain-based predictions of age can be made in independent clinical samples. If ‘brain-predicted age’ is greater than an individual's chronological age, this is thought to reflect some aberrant accumulation of age-related changes to the brain (Id.). […] A predictive model of normal ageing defined using machine learning in healthy individuals, based on magnetic resonance imaging-derived estimates of gray matter and white matter (Id.) was applied to the MRI images from the subjects enrolled in the study of Example 1. […] There was a significant reversal of brain age from baseline to one month after treatment. The mean decrease in brain age was 1.3 years (corrected p=0.03).
At baseline, the brain age estimate for the 24 subjects was 40.89 years. […] The average decrease in brain age from baseline one month after treatment was 1.4 years.

[2] = in vivo; cited from earlier work
[3] = contrast 1 wk post − 1 mo. post
[4] = contrast immediate post (~1 wk) − baseline
[5] = one month after treatment, 24 subjects

CCC1CC2CC3c4[nH]c5ccc(OC)cc5c4CCN(C2)C13 (centres unmarked) [ibogaine, Ibogaine]
Brain age, contrast Estimate ([1]; Baseline & 1 wk. vs 1 mo., weights .5-.5-1): 1.220 years | Brain age, contrast Estimate ([1]; Baseline vs. 1 wk and 1 mo., weights 1-.5-.5): 0.892 years | brain age estimate ([1]; about one week after treatment, 24 subjects): 40.52 years | mean decrease in predicted brain age ([1]; baseline to one month after treatment, corrected p=0.03 (FIG. 19A)): 1.3 years | Brain age, Cohen's d ([1]; contrast 1-mo. post − baseline): −0.6137 | Brain age, Mean Difference ([1]; contrast 1-mo. post − baseline): −1.408 Years | Brain age, Cohen's d [1, 3]: −0.4729 | Brain age, Mean Difference [1, 3]: −1.031 Years | Brain age, Cohen's d [1, 4]: −0.2114 | Brain age, Mean Difference [1, 4]: −0.3764 Years | average decrease in brain age from baseline [1, 5]: 1.4 years | brain age estimate [1, 5]: 39.48 years | estimated brain age compared to accelerated intermittent theta burst stimulation (aiTBS) ([1]; one-month post treatment (FIG. 19D)): reducing in estimated brain age | people who may suffer from cardiac arrest when treated [2]: Approximately 1 in 300
